{"source": "ChEMBL document CHEMBL5528062", "about": "(J Med Chem, 2024)", "key": {"[1]": {"system": "Mycobacterium tuberculosis", "assay": "Antimycobacterial activity against Mycobacterium tuberculosis H37Rv mc2 6206 assessed as inhibition of bacterial growth measured after 7 days by visual analysis", "type": "functional", "details": "H37Rv mc2 6206, 168 h, time 7 day"}, "[2]": {"system": "Mycolicibacterium smegmatis", "assay": "Antimycobacterial activity against Mycobacterium smegmatis ATCC607 assessed as inhibition of bacterial growth measured after 48 hrs by broth microdilution method", "type": "functional"}, "[3]": {"system": "Mycolicibacterium smegmatis", "assay": "Antimycobacterial activity against Mycobacterium smegmatis 700084 assessed as inhibition of microbial growth incubated for 48 hrs by resazurin dye based broth microdilution method", "type": "functional"}, "Acinetobacter baumannii": {"system": "Acinetobacter baumannii", "assay": "Antibacterial activity against Acinetobacter baumannii harboring RpoB H535Q mutant assessed as fold change in MIC incubated for 20 hrs by CLSI based microbroth dilution method", "type": "functional"}, "[4]": {"system": "Mycobacterium tuberculosis", "assay": "Antimycobacterial activity against Mycobacterium tuberculosis K204 assessed as inhibition of bacterial growth measured after 6 days by alamar blue dye based assay", "type": "functional", "details": "K204, 144 h, time 6 day"}, "[5]": {"system": "Mycobacterium tuberculosis", "assay": "Antimycobacterial activity against Mycobacterium tuberculosis H37Rv assessed as reduction in bacterial cell growth by resazurin reduction method", "type": "functional"}, "[6]": {"assay": "Aqueous solubility of compound at pH 2.0 measured for 1 hr by UV-plate reader analysis", "type": "physicochemical", "details": "buffer"}, "[7]": {"assay": "Aqueous solubility of compound in PBS at pH 6.5 incubated for 24 hrs by HPLC-MS/MS analysis", "type": "physicochemical"}, "[8]": {"system": "Mycobacterium tuberculosis", "assay": "Antibacterial activity against Mycobacterium tuberculosis H37Rv assessed as inhibition of bacterial growth incubated for 6 days by microplate alamar blue assay", "type": "functional", "details": "144 h, time 6 day"}, "[9]": {"assay": "Aqueous solubility of compound at pH 7.4 by HPLC-MS/MS analysis", "type": "physicochemical", "details": "buffer"}, "[10]": {"assay": "Aqueous solubility of compound at pH 7.4 measured for 1 hr by UV-plate reader analysis", "type": "physicochemical", "details": "buffer"}, "[11]": {"system": "Mycobacterium tuberculosis", "assay": "Antibacterial activity against Mycobacterium tuberculosis H37Rv assessed as reduction in microbial growth", "type": "functional"}, "Mycobacterium avium": {"system": "Mycobacterium avium", "assay": "Antibacterial activity against Mycobacterium avium ATCC 25291 assessed as inhibition of bacterial growth incubated for 2 to 3 weeks by resazurin dye based assay", "type": "functional", "details": "time 2-3 weeks"}, "[12]": {"system": "Mycobacterium tuberculosis", "assay": "Antibacterial activity against Mycobacterium tuberculosis H37Rv assessed as bacterial growth inhibition", "type": "functional"}, "[13]": {"assay": "Aqueous solubility of compound at pH 7.4", "type": "physicochemical", "details": "buffer"}, "[14]": {"system": "Mycobacterium tuberculosis", "assay": "Antimycobacterial activity against Mycobacterium tuberculosis H37Rv assessed as inhibition of bacterial growth incubated for 7 to 14 days by MABA assay", "type": "functional", "details": "time 7-14 day"}}}
{"compound": "C[C@]1(COc2ccc(N3CCC(Oc4ccc(OC(F)(F)F)cc4)CC3)cc2)Cn2cc([N+](=O)[O-])nc2O1", "values": [{"measurement": "MIC", "setting": "[1]", "value": 0.007, "unit": "µg/mL"}, {"measurement": "MIC", "setting": "[2]", "value": 0.03, "unit": "µg/mL"}]}
{"compound": "O=[N+]([O-])c1cn2c(n1)OC[C@@H](OCc1ccc(OC(F)(F)F)cc1)C2", "note": "[PRETOMANID]", "values": [{"measurement": "MIC", "setting": "[3]", "value": 0.03, "unit": "µg/mL"}, {"measurement": "MIC", "setting": "[2]", "value": 0.03, "unit": "µg/mL"}, {"measurement": "fold change (FC)", "setting": "Acinetobacter baumannii", "value": ">13"}]}
{"compound": "O=[N+]([O-])c1cn2c(n1)OC[C@@H](OCc1nnn(-c3ccc(OC(F)(F)F)cc3)n1)C2", "values": [{"measurement": "MIC", "setting": "[4]", "value": 0.035, "unit": "µM"}]}
{"compound": "C[C@]1(CN2CCc3nc(-c4ccccc4)ccc3C2)Cn2cc([N+](=O)[O-])nc2O1", "values": [{"measurement": "MIC", "setting": "[5]", "value": "< 0.031", "unit": "µg/mL"}, {"measurement": "solubility at 1 h", "setting": "[6]", "value": 143, "unit": "µM"}, {"measurement": "solubility at 24 h", "setting": "[7]", "value": 9.41, "unit": "µM"}]}
{"compound": "COc1nc2ccc(Br)cc2cc1[C@@H](c1ccccc1)[C@@](O)(CCN(C)C)c1cccc2ccccc12", "note": "[BEDAQUILINE]", "values": [{"measurement": "MIC", "setting": "[2]", "value": 0.015, "unit": "µg/mL"}]}
{"compound": "COc1nc2ccc(C#N)cc2cc1[C@H](c1ccccc1)[C@](O)(CCN(C)C)c1ccccc1", "values": [{"measurement": "MIC", "setting": "[8]", "value": 0.09, "unit": "µg/mL"}]}
{"compound": "Cn1nc(-c2ccc(OC(F)(F)F)cc2)cc1CO[C@@H]1COc2nc([N+](=O)[O-])cn2C1", "values": [{"measurement": "solubility", "setting": "[9]", "value": 23, "unit": "µg/mL"}, {"measurement": "MIC", "setting": "[4]", "value": 0.06, "unit": "µM"}]}
{"compound": "C[C@]1(COc2ccc(-n3cc(COc4ccc(OC(F)(F)F)cc4)nn3)cc2)Cn2cc([N+](=O)[O-])nc2O1", "values": [{"measurement": "solubility at 1 h", "setting": "[10]", "value": "< 1", "unit": "µg/mL"}, {"measurement": "MIC", "setting": "[11]", "value": 0.12, "unit": "µg/mL"}]}
{"compound": "O=[N+]([O-])c1cn2c(n1)OC[C@@H](OCc1ccc(-c3ccc(OC(F)(F)F)c(Cl)c3)cc1)C2", "values": [{"measurement": "MIC", "setting": "Mycobacterium avium", "value": 0.03, "unit": "µM"}]}
{"compound": "O=[N+]([O-])c1cn2c(n1)OC[C@@H](OCc1ccn(-c3ccc(OC(F)(F)F)cc3)n1)C2", "values": [{"measurement": "MIC", "setting": "[4]", "value": 0.05, "unit": "µM"}]}
{"compound": "C[C@]1(CN2CCc3nc(-c4ccc(F)cc4)ccc3C2)Cn2cc([N+](=O)[O-])nc2O1", "values": [{"measurement": "MIC", "setting": "[5]", "value": 0.25, "unit": "µg/mL"}, {"measurement": "solubility at 1 h", "setting": "[6]", "value": 130, "unit": "µM"}, {"measurement": "solubility at 24 h", "setting": "[7]", "value": 3.35, "unit": "µM"}]}
{"compound": "C[C@]1(CN2CCc3nc(-c4cc(F)c(F)c(F)c4)ccc3C2)Cn2cc([N+](=O)[O-])nc2O1", "values": [{"measurement": "MIC", "setting": "[5]", "value": 0.08, "unit": "µg/mL"}, {"measurement": "solubility at 1 h", "setting": "[6]", "value": "> 200", "unit": "µM"}, {"measurement": "solubility at 24 h", "setting": "[7]", "value": "< 1", "unit": "µM"}]}
{"compound": "O=[N+]([O-])c1cn2c(n1)OC[C@@H](OCc1ccc(-c3ccc(OC(F)(F)F)cc3)cc1)C2", "values": [{"measurement": "MIC", "setting": "Mycobacterium avium", "value": 0.035, "unit": "µM"}]}
{"compound": "C[C@]1(COc2ccc(S(=O)(=O)N3CCOCC3)cc2)Cn2cc([N+](=O)[O-])nc2O1", "values": [{"measurement": "MIC", "setting": "[12]", "value": 0.37, "unit": "µg/mL"}, {"measurement": "solubility at 1 h", "setting": "[10]", "value": 20, "unit": "µg/mL"}]}
{"compound": "O=[N+]([O-])c1cn2c(n1)OC[C@@H](OCc1ccc(-c3ccc(OC(F)(F)F)c(F)c3)nc1)C2", "values": [{"measurement": "solubility", "setting": "[13]", "value": 3, "unit": "µg/mL"}, {"measurement": "MIC", "setting": "[14]", "value": 0.025, "unit": "µM"}]}
{"compound": "O=[N+]([O-])c1cn2c(n1)OC[C@@H](OCc1ccc(-c3ccc(OC(F)(F)F)c(F)c3)cc1)C2", "values": [{"measurement": "MIC", "setting": "Mycobacterium avium", "value": 0.03, "unit": "µM"}]}
{"compound": "O=[N+]([O-])c1cn2c(n1)OC[C@@H](OCc1ccc(-c3ccc(OC(F)(F)F)cc3)nc1)C2", "note": "[TBA-354]", "values": [{"measurement": "solubility", "setting": "[13]", "value": 2.3, "unit": "µg/mL"}, {"measurement": "MIC", "setting": "[14]", "value": 0.005, "unit": "µM"}]}
